The target in one series is T1, WT EGFR (Homo sapiens, UniProt P00533).
T1 construct: host or cells: A-431
In words: WT EGFR cellular phosphorylation inhibition in A-431 (hEGF stimulated, MSD).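 Also: electrochemiluminescence read-out of EGFR Tyr1068 phosphorylation expressed as ratio to total EGFR, cells kept in medium with 1% FBS, compounds tested as a concentration series.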 It counts as cell-based. As to conditions: A431 cells, 4 h compound, then 100 ng/ml hEGF 10 min.

The next series concerns Ba/F3 EGFR NPH ins cells. In words: Cell proliferation, Ba/F3 EGFR NPH ins (CellTiter-Glo, 72 h).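 Also: IL3-independent cells carrying constitutively phosphorylated EGFR, compound dilution series, viable cells quantified by ATP luminescence, growth relative to DMSO wells after subtracting pre-dosing (day 0) baseline.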 It counts as cell-based. The following applies: Ba/F3 EGFR, 72 h, Ba/F3 EGFR NPH ins, 72 h proliferation; read-out: EGFR Exon20 NPH insertion GI50. On the technique in general: Cellular ATP, detected with luciferase, serves as a proxy for viable cell number.
The subject of a further series is TMD-8 cells. In words: BTK (wt) cell proliferation, TMD-8 (CellTiter-Glo, 72 h).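 Also: viable cells quantified by ATP-based luminescence, proliferation expressed as percent of DMSO control after subtracting a time-zero baseline plate read at dosing.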 It counts as cell-based. The following applies: Homo sapiens, TMD8, 72 h, TMD-8 cells, 72 h, CellTiter-Glo; read-out: BTK WT TMD-8 GI50.
The target of the next series is T2, Phospho-BTK (Tyr223) (Homo sapiens, UniProt Q06187).
T2 construct: endogenous in cells; host or cells: Ramos
In words: p-BTK assay in Ramos cells (HTRF Phospho-BTK Tyr223). Format: cell-based. The following applies: pervanadate stimulated, read-out: p-BTK (Romas) IC50. A general note: TR-FRET usually uses a lanthanide donor and a delayed reading to cut background.

The nature of series [1]: Rat pharmacokinetic study after oral administration (SOA). It counts as in vivo. As to conditions: male Han Wistar rats. Here is the method: For rat pharmacokinetic studies, six male Han Wistar rats were purchased from Beijing Vital River and orally dosed with the test compound at 10 mg/kg in 0.5% Tween-80 and 0.5% hydroxypropyl methylcellulose (v/w). At, 0.5, 1, 2, 4, 7 and 16 hours post-dose, blood samples (>100 µL/time point) were collected from portal vein and via cardiac puncture into separate K2EDTA […] tubes, and then immediately centrifuged at 1500 g, 5 min at 4° C. to separate plasma. The plasma samples were deproteinized with 4 fold acetonitrile (including internal standard), vortex for 10 min and centrifuges for 10 minutes at 4000 g at 4° C.. The supernatantswere submitted to LC/MS/MS (API 5500, Applied Biosystems, Foster City) analysis. Two sets of standard curves were run at the beginning and end of each batch from plasma sample analysis.
Compound absorption was measured by portal vein AUC (AUCHPV) and systemic AUC (AUCSYS) observed maximum concentration (Cmax) in rats after oral administration. Dose is the actual dose used in SOA study. Find below in Table 9 data for exemplary tested compounds.

In another series the target is BTK (Homo sapiens, UniProt Q06187). The series can be described thus: BTK target site occupancy ELISA (Ramos). Format: cell-based. More on the design: endogenous in cells; host or cells: Ramos. As to conditions: BTK receptor occupancy, read-out: Occupancy (Romas) IC50. Background: An ELISA detects its analyte on a solid surface through an enzyme-linked reagent.
Series [2] is described as follows: In vitro rat hepatocytes clearance assay. The following applies: male, rat, cryopreserved rat hepatocytes (suspension), rat hepatocytes Clint (µL/min/10^6cells), 1 µM-range incubation up to 100 min.

T2 sequence (Q06187 whole entry): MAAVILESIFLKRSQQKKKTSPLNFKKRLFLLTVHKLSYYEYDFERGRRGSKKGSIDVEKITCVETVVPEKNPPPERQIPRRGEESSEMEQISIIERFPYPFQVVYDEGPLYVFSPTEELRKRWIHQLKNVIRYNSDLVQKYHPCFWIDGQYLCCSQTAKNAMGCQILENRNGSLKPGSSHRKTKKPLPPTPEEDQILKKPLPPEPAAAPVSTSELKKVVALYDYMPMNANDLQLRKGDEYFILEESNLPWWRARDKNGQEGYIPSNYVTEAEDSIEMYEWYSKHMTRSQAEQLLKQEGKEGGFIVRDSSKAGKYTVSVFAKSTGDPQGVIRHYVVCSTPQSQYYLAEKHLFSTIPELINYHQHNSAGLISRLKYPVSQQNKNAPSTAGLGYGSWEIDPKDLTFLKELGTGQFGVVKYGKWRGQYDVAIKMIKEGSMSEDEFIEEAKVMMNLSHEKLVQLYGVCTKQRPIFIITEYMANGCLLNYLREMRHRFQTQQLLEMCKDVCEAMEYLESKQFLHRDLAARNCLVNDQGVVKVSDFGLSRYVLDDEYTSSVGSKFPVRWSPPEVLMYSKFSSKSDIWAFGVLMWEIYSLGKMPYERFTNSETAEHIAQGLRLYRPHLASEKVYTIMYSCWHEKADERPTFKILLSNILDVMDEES
Chain of BTK (Q06187 whole entry): as above
T1 sequence (P00533 25-1210): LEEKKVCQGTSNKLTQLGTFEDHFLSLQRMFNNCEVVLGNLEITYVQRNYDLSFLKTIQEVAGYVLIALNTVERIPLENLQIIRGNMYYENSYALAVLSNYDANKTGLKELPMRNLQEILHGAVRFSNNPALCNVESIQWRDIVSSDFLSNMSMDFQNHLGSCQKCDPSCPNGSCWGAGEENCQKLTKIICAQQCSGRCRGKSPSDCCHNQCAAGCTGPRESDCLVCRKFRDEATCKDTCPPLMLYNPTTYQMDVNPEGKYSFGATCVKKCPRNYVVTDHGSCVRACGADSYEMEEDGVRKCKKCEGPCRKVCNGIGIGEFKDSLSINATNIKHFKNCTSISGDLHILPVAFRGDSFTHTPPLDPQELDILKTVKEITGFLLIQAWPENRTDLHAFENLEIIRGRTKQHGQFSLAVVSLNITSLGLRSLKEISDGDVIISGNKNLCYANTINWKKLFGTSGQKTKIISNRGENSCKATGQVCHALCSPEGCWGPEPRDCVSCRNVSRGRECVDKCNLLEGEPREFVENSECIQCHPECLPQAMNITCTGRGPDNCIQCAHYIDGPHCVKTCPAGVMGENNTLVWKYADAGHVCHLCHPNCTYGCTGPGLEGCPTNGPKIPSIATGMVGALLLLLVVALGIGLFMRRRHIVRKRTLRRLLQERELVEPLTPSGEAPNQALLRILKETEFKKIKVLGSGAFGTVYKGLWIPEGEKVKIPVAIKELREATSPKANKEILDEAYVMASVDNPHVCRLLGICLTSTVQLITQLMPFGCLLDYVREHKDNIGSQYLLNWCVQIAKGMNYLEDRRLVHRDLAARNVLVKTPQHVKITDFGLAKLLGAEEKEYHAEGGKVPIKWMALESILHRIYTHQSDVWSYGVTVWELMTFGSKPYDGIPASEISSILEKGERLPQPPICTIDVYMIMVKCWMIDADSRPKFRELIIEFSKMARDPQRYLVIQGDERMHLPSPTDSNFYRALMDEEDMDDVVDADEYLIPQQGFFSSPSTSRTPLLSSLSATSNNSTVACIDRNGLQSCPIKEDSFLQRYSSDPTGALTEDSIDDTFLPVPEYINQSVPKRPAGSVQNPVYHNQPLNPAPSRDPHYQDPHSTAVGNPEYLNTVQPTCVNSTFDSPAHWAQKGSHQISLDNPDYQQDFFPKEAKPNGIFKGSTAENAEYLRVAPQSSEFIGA
Procedure for Phospho-BTK (Tyr223): The assay plates were then incubated for 30 minutes at 37° C., 5% CO2. 300 uM Per vanadate (3X) was added to each well and the assay plates were again incubated for 60 minutes at 37° C., 5% CO2. Phospho-BTK (Tyr223) is detected using the HTRF® reagents (Cisbio) according to the manufacturer’s one-plate assay protocol.
Procedure for TMD-8 cells: OCI-LY-10 at 3,750 cells/well, TMD-8 and Ri-1 at 2,000 cells/well, and DB at 1,250 cells/well, respectively, were sorted into 384-well plates in RPMI1640 medium with 10% FBS. After overnight incubation, all cells were incubated with compound at a series of concentrations. Meanwhile, a duplicated plate of each cell line was prepared for measuring G0 value. The dosed plates were further incubated for 72 hours and the number of viable cells was measured by CellTiter-Glo® Luminescent Cell Viability Assay (Promega), a luminescent method for determining the number of viable cells through measurement of cellular ATP concentration using Envision plate reader (PerkinElmer). The percentage of proliferation was calculated as: % Proliferation = 100 × (G3 value of sample well - G0 value)/(G3 value of DMSO control - G0 value).

One may read the IC50 as the concentration at which inhibition is half-maximal. A word on the GI50: it is the concentration at which growth is held to half of that of the control. By Cmax is commonly meant the highest concentration seen after dosing. For orientation: hepatocyte CLint means the capacity of the preparation to metabolise the compound, expressed as a volume cleared per time. Low values mean slow turnover, high ones rapid turnover. On to `C=CC(=O)Nc1cc(Nc2nccc(Nc3cc(Cl)c(F)cc3C(C)(C)O)n2)c(OC)cc1N1CC[C@@H](N(C)C)C1` [Compound 52, (R)-N-(5-(4-(5-chloro-4-fluoro-2-(2-hydroxypropan-2-yl)phenylamino)pyrimidin-2-ylamino)-2-(3-(dimethylamino)pyrrolidin-1-yl)-4-methoxyphenyl)a crylamide], for which the IC50 worked out at 80.4 nM on WT EGFR, 2.9 nM on Phospho-BTK (Tyr223) and 0.6 nM on BTK. Moreover, the figures for the GI50 in the series with Ba/F3 EGFR NPH ins cells and in the series with TMD-8 cells were 60.4 nM and 5.8 nM, respectively. Besides, in series [1] (dose-normalised systemic AUC), the “SOA DN AUCSYS (ng·h/mL)/(mg/kg)” value was 103 (ng·h/mL)/(mg/kg). In series [1] (rat, plasma, nominal 10 mg/kg (actual dose in c1)), this compound came in with a peak concentration (Cmax) of 99 ng/mL. In addition, in series [2], the hepatocyte CLint at 1 µM turned out to be 13.3 µL/min/1e6 cells.
